From patent publication US7038047B2, “Substituted 6-(2-methoxyphenyl) triazolopyrimides as fungicides” (BASF Aktiengesellschaft, priority 2001, dated 2006)

Legend:
[1] = tested on: cucumber mildew (Sphaerotheca fuliginea); test: Protective action on cucumber mildew, cucumber seedlings; type: in vivo; conditions: 250 ppm, inoculated 20 hours after spraying, assessed after 7 days, untreated plants infected to 90%
Source text: The active compounds, separately or together, were formulated as a 10% emulsion in a mixture of 70% by weight of cyclohexanone, 20% by weight of Nekanil® LN (Lutensol® AP6, wetting agent having emulsifying and dispersant action based on ethoxylated alkylphenols) and 10% by weight of Wettol® EM (nonionic emulsifier based on ethoxylated castor oil) and diluted with water to the desired concentration.
Leaves of pot grown cucumber seedlings of the “Chinesische Schlange” variety were sprayed to runoff with aqueous liquors made from a stock solution consisting of 10% of active ingredient, 85% of cyclohexanone, and 5% of emulsifier. 20 hours after the sprays-on layer had dried, the plants were inoculated with a aqueous spore suspension of cucumber mildew (Sphaerotheca fuliginea). The plants were then placed for 7 days in the greenhouse at 20 to 24° C. and a relative humidity of 60 to 80%. The extent of fungus spread was assessed as %-attack of the whole leaf surface.

Cercospora beticola = test: Fungicidal control of leaf spot on beets (Cercospora beticola), protective spray on sugar beet seedlings; type: in vivo; conditions: sugar beet seedlings ACH-31, sprayed before inoculation, untreated plants infected to 90%
Protocol: The active compounds, separately or together, were formulated as a 10% emulsion in a mixture of 70% by weight of cyclohexanone, 20% by weight of Nekanil® LN (Lutensol® AP6, wetting agent having emulsifying and dispersant action based on ethoxylated alkylphenols) and 10% by weight of Wettol® EM (nonionic emulsifier based on ethoxylated castor oil) and diluted with water to the desired concentration. Young sugar beet seedlings of the cultivar “ACH-31” were grown in pots to the 2 to 4 leaf stage. These plants were sprayed to runoff with an aqueous suspension, containing the concentration of active ingredient mentioned in the table below, prepared from a stock solution containing 5% of the active ingredient, 94% cyclohexanone and 1% emulsifier (Tween 20). After the plants had dried (3–5 h), they were inoculated with a spore suspension of Cercospora beticola in an aqueous solution of 0.5% gelatine. Then the trial plants were immediately transferred to a humid chamber with 18–23° C. and a relative humidity close to 100% and kept there for 5 days. For a period of further 10–14 days a cultivation in a greenhouse followed at 21–23° C. and a relative humidity about 95%. Then the extent of fungal attack on the leaves was visually assessed as % diseased leaf area.

| Compound | infection (%-attack of the whole leaf surface) [1] | infection (% diseased leaf area) (Cercospora beticola; 50 ppm) | infection (% diseased leaf area) (Cercospora beticola; 200 ppm) |
| --- | --- | --- | --- |
| COc1cc(F)cc(F)c1-c1c(Cl)nc2ncnn2c1NC(C)C(F)(F)F (stereo not drawn) [I-38B, 5-chloro-6-(4,6-difluoro-2-methoxyphenyl)-7-(1,1,1-trifluoroprop-2-yl)amino-[1,2,4]-triazolo[1,5-α]pyrimidine] | no infection | – | – |
| COc1cc(F)cc(F)c1-c1c(Cl)nc2ncnn2c1NC(C)C(F)(F)F (stereo not drawn) [I-38, 5-chloro-6-(4,6-difluoro-2-methoxyphenyl)-7-(1,1,1-trifluoroprop-2-yl)amino-[1,2,4]-triazolo[1,5-α]pyrimidine] | – | not more than 7% | not more than 7% |
